# Source: US8217005B2 (priority 2006, dated 2012)
# Tests used:
# human μ-opioid receptor = target: T1, human μ-opioid receptor (Homo sapiens, UniProt P35372); experiment: biochemical; type: binding
# T1 construct: expressed in transfected cells; host or cells: HEK-293 cells
# [1] = rat, in vivo
# [2] = male, Sprague-Dawley, rat, in vivo, 0.5 mg/kg
# T1 sequence (P35372 whole entry): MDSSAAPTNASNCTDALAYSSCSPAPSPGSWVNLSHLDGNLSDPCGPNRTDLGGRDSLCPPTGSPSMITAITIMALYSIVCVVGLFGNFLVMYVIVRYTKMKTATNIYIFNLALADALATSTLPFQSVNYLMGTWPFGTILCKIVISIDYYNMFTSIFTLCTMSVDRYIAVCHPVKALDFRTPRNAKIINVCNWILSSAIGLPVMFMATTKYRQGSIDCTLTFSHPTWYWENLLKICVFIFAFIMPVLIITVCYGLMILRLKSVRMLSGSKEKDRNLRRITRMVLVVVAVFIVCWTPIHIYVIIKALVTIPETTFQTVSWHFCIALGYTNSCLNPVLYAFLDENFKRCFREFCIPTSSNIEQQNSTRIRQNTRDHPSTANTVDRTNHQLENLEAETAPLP
smiles,measurement,setting,value
"CN(CCNC(=O)[C@@H](N)CCCNC(=N)N)C(=O)Oc1ccc2c3c1OC1C(=O)CCC4[C@@H](C2)N(C)CC[C@]314 (stereo partly drawn) [Example 1, Hydromorphone 3-(N-methyl-N-(2-arginylamino))ethylcarbamate]",IC50,human μ-opioid receptor,2100 nM
"CC(=O)N[C@@H](CCCNC(=N)N)C(=O)NCCN(C)C(=O)Oc1ccc2c3c1OC1C(=O)CCC4[C@@H](C2)N(C)CC[C@]314 (stereo partly drawn) [Example 3, Hydromorphone 3-(N-methyl-N-(2-N′-acetylarginylamino))ethylcarbamate]",IC50,human μ-opioid receptor,1300 nM
"CN(CCNC(=O)[C@H](CCCNC(=N)N)NC(=O)c1ccc2c(c1)OCO2)C(=O)Oc1ccc2c3c1OC1C(=O)CCC4[C@@H](C2)N(C)CC[C@]314 (stereo partly drawn) [Example 6, Hydromorphone 3-(N-methyl-N-(N′-piperonyl-2-arginylamino))ethylcarbamate]",IC50,human μ-opioid receptor,790 nM
"CN(CCNC(=O)[C@@H](N)CCCCN)C(=O)Oc1ccc2c3c1OC1C(=O)CCC4[C@@H](C2)N(C)CC[C@]314 (stereo partly drawn) [Example 7, Hydromorphone 3-(N-methyl-N-(2-lysinylamino))ethylcarbamate]",IC50,human μ-opioid receptor,790 nM
CN(CCN)C(=O)Oc1ccc2c3c1O[C@H]1C(=O)CC[C@@]4(O)[C@@H](C2)[N+](C)(CC2CC2)CC[C@]314.Cl.[Cl-] (stereo partly drawn) [Example 19],"pharmacokinetic profile (e.g. oral bioavailability), FIG. 1",[1]; 20 mg/kg,improved pharmacokinetic profile
same,Cmax value compared to (R)-N-methylnaltrexone,[1]; po,superior
"C[N@+]1(CC2CC2)CC[C@]23c4c5ccc(O)c4O[C@H]2C(=O)CC[C@@]3(O)[C@H]1C5 [N-methylnaltrexone, (R)—N-methylnaltrexone, reference compound]",Cmax N-MTX following PO dosing,[1]; 20 mg/kg,6 ng/mL
same,"pharmacokinetic profile (e.g. oral bioavailability), FIG. 1",[1]; 20 mg/kg,poor pharmacokinetic profile
CN1CC[C@]23c4c5ccc(O)c4O[C@H]2C(=O)CC[C@@]3(O)[C@H]1C5 [oxymorphone],Cmax OM following IV dosing,[2],432 ng/mL
